Values after ≈ are worked out from the molar mass of the structure shown. Where two headings read alike, the source gives them in different places.
What was measured:
[1] = test system: Influenza virus A1 /FM-1; experiment: microbe, parasite or virus in culture; format: cell-based
[2] = test system: Klebsiella pneumoniae PCI 602; experiment: Agar dilution antibacterial MIC; format: cell-based; settings: PCI602, agar dilution method, read-out: Minimum Inhibitory Concentration
[3] = test system: Salmonella typhi 0-901-W; experiment: Agar dilution antibacterial MIC; format: cell-based; settings: Salmonella enterica, read-out: Minimum Inhibitory Concentration
[4] = test system: Influenza virus Horse/Miami; experiment: microbe, parasite or virus in culture; format: cell-based
[5] = in vitro; settings: chicken, chorioallantoic membrane
[6] = test system: Escherichia coli W3630 RGN 823; experiment: Agar dilution antibacterial MIC; format: cell-based; settings: W3630RGN823, read-out: Minimum Inhibitory Concentration
[7] = test system: Shigella sonnei EW33 type I; experiment: Agar dilution antibacterial MIC; format: cell-based; settings: EW33TYPEI, agar dilution method, read-out: Minimum Inhibitory Concentration
[8] = test system: Pseudomonas aeruginosa MB 3829; experiment: Agar dilution antibacterial MIC; format: cell-based; settings: MB3829, agar dilution method, read-out: Minimum Inhibitory Concentration
[9] = Stability; format: physicochemical
Description: (13) Stability: Stable under acidic to neutral condition, instable under alkaline condition.

[10] = test system: Pseudomonas cepacia M-0527; experiment: Agar dilution antibacterial MIC; format: cell-based; settings: Burkholderia cepacia, M0527; agar dilution method; read-out: Minimum Inhibitory Concentration
[11] = test system: Proteus vulgaris OX-19; experiment: Agar dilution antibacterial MIC; format: cell-based; settings: OX19, agar dilution method, read-out: Minimum Inhibitory Concentration
[12] = test system: Influenza virus B/Lee; experiment: microbe, parasite or virus in culture; format: cell-based
[13] = test system: Vibrio percolance; experiment: Paper disc plate bioassay, inhibition zone; format: cell-based; settings: paper disc plate method, read-out: diameter of inhibition zone
Description: For assay of the substance SF-2140, bioassay agar is used as a medium for assay and Vibrio percolance is as a test microbe.

[14] = test system: Influenza virus Horse/Miami; experiment: microbe, parasite or virus in culture; format: cell-based; remark: listed apart in the source
[15] = test system: Staphylococcus aureus Smith; experiment: Agar dilution antibacterial MIC; format: cell-based; settings: agar dilution method, read-out: Minimum Inhibitory Concentration
[16] = test system: Influenza virus A1 /FM-1; experiment: microbe, parasite or virus in culture; format: cell-based; remark: listed apart in the source
[17] = Serum level after intraperitoneal administration; format: in vivo; settings: 200 mg/kg intraperitoneal (1% CMC), biological assay, mice n=5
Description: | Dose: 200 mg/kg (1% CMC)

[18] = test system: Citrobacter freundii GN 346; experiment: Agar dilution antibacterial MIC; format: cell-based; settings: GN346, read-out: Minimum Inhibitory Concentration
[19] = test system: Staphylococcus aureus 209P; experiment: Agar dilution antibacterial MIC; format: cell-based; settings: agar dilution method, read-out: Minimum Inhibitory Concentration
[20] = test system: Influenza virus A2 /Adachi; experiment: microbe, parasite or virus in culture; format: cell-based
[21] = test system: Streptococcus faecalis ATCC 8043; experiment: Agar dilution antibacterial MIC; format: cell-based; settings: Enterococcus faecalis, ATCC8043; agar dilution method; read-out: Minimum Inhibitory Concentration
[22] = test system: Salmonella enteritidis No. 11; experiment: Agar dilution antibacterial MIC; format: cell-based; settings: Salmonella enterica, agar dilution method, read-out: Minimum Inhibitory Concentration
[23] = Serum level after oral administration; format: in vivo; settings: 125 mg/kg oral (5% arabin gum), HPLC, mice n=3
Description: | Dose: 125 mg/kg (5% arabin gum)

[24] = test system: Baciullus anthrasis No. 119; experiment: Agar dilution antibacterial MIC; format: cell-based; settings: read-out: Minimum Inhibitory Concentration
[25] = test system: Proteus morganii Kono; experiment: Agar dilution antibacterial MIC; format: cell-based; settings: Morganella morganii; agar dilution method; read-out: Minimum Inhibitory Concentration
[26] = test system: Influenza virus B/Lee; experiment: microbe, parasite or virus in culture; format: cell-based; settings: unidentified influenza virus, 48 h, read-out: 50% Virus proliferation inhibiting conc.
[27] = test system: Influenza virus A2 /Adachi; experiment: microbe, parasite or virus in culture; format: cell-based; remark: listed apart in the source
[28] = Solubility; format: physicochemical
[29] = test system: Escherichia coli No. 29; experiment: Agar dilution antibacterial MIC; format: cell-based; settings: agar dilution method, read-out: Minimum Inhibitory Concentration
[30] = test system: Sarcina lutea; experiment: Agar dilution antibacterial MIC; format: cell-based; settings: Micrococcus luteus; agar dilution method; read-out: Minimum Inhibitory Concentration
[31] = Acute toxicity (LD50); settings: mouse, in vivo, ip; mice, intraperitoneal
Description: Acute toxicity (LD50 value) of the substance SF-2140, the active ingredient in the present antiviral agent, was not less than 500 mg/kg in mice via intraperitoneal administration.

[32] = unidentified influenza virus, 2 h, read-out: 50% Virucidal conc.
[33] = unidentified influenza virus, 48 h, read-out: 50% Virus proliferation inhibiting conc.

With `COC(=O)C1CC(O)C(O)C(n2cc(CC#N)c3c(OC)cccc32)O1` (stereo not shown) [SF-2140] the “virucidal activity (in words)” value [1] was “potent virucidal activity”, the IC50 [1, 32] was 4.6 µg/mL (≈ 12.8 µM) and the MIC [2] was > 100 µg/mL. The MIC [3] was 100 µg/mL (≈ 277 µM), the “virucidal activity (in words)” value [4] was “potent virucidal activity” and the IC50 [4, 32] was 4.6 µg/mL (≈ 12.8 µM). The CC50 at 24 h [5] was > 1000 µg/mL, the MIC [6] was 50 µg/mL (≈ 139 µM) and the MIC [7] was > 100 µg/mL. The MIC [8] was > 100 µg/mL, the Stability ([9]; acidic to neutral condition) was “Stable” and the Stability ([9]; alkaline condition) was “instable”. For the same compound, the MIC [10] was 100 µg/mL (≈ 277 µM), the MIC [11] was 25 µg/mL (≈ 69.4 µM) and the “virucidal activity (in words)” value [12] was “potent virucidal activity”. The IC50 [12, 32] was 46.4 µg/mL (≈ 129 µM), the zone of inhibition at 125 µg/mL ([13]; 125 mcg/ml) was 14.6 mm and the zone of inhibition at 1000 µg/mL ([13]; 1000 mcg/ml) was 22 mm. The “proliferation inhibiting activity (in words)” value [14] was “showed a proliferation inhibiting activity”, the “virus proliferation inhibition index” value ([14]; Horse/Miami, 50% toxicity conc. / 50% proliferation inhibiting conc., 2880 min) was > 56.5 and the IC50 [14, 33] was 17.7 µg/mL (≈ 49.1 µM). The MIC [15] was 100 µg/mL (≈ 277 µM), the “proliferation inhibiting activity (in words)” value [16] was “showed a proliferation inhibiting activity” and the “virus proliferation inhibition index” value ([16]; A1 /FM-1, 50% toxicity conc. / 50% proliferation inhibiting conc., 2880 min) was > 20.0. For the same compound, the IC50 [16, 33] was 50.5 µg/mL (≈ 140 µM), the Serum concentration ([17]; 90 min) was 0 ng/mL and the concentration at 5 min ([17]; mouse, serum, ip, 5 min) was 30000 ng/mL. The concentration at 10 min ([17]; mouse, serum, ip, 10 min) was 42000 ng/mL, the concentration at 20 min ([17]; mouse, serum, ip, 20 min) was 55000 ng/mL and the concentration at 0.5 h ([17]; mouse, serum, ip, 30 min) was 45000 ng/mL. For the same compound, the concentration at 1 h ([17]; mouse, serum, ip, 60 min) was 27000 ng/mL, the MIC [18] was > 100 µg/mL and the MIC [19] was 25 µg/mL (≈ 69.4 µM). The “proliferation inhibiting activity (in words)” value [20] was “showed a proliferation inhibiting activity”, the “virus proliferation inhibition index” value ([20]; A2 /Adachi, 50% toxicity conc. / 50% proliferation inhibiting conc., 2880 min) was > 10.0 and the IC50 [20, 33] was 100 µg/mL (≈ 277 µM). For the same compound, the MIC [21] was 12.5 µg/mL (≈ 34.7 µM), the MIC [22] was 12.5 µg/mL (≈ 34.7 µM) and the Serum concentration ([23]; 180 min) was 0 ng/mL. For the same compound, the concentration at 0.5 h ([23]; mouse, serum, 30 min) was 15000 ng/mL, the concentration at 1 h ([23]; mouse, serum, 60 min) was 7000 ng/mL and the MIC [24] was 6.25 µg/mL (≈ 17.3 µM). For the same compound, the MIC [25] was > 100 µg/mL, the IC50 [26] was > 200 µg/mL and the “virucidal activity (in words)” value [27] was “potent virucidal activity”. The IC50 [27, 32] was 58.8 µg/mL (≈ 163 µM), the Solubility ([28]; Ethyl acetate, benzene, acetone, chloroform) was “Soluble” and the Solubility ([28]; Hexane, water) was “Substantially insoluble”. The Solubility ([28]; Lower alcohol, e.g. methanol and ethanol) was “Easily soluble”, the MIC [29] was > 100 µg/mL and the MIC [30] was 50 µg/mL (≈ 139 µM). For the same compound, the LD50 [31] was ≥ 500 mg/kg.

From patent US4536398A, “Antiviral agents” (Meiji Seika Kaisha Ltd., priority 1982, dated 1985)
